In experiment [1] the test system is Human betaherpesvirus 5. In words: Compound was tested for antiviral activity against human cytomegalovirus (HCMV) plaque reduction assay. The experiment is classed as functional, organism-based. A general note: In a plaque reduction assay, fewer plaques than in the control indicate reduced infectivity or spread.
The test system of a further experiment is Human alphaherpesvirus 1. Put plainly: Compound was tested for antiviral activity against HSV-1. The experiment is classed as functional, organism-based.
In the next experiment the test system is HFF. In words: Cytotoxicity against human foreskin fibroblasts (HFF) cells. The experiment is classed as functional, cell-based.
Experiment [2] concerns Human betaherpesvirus 5. In words: Compound was tested for antiviral activity against human cytomegalovirus (HCMV) yield reduction assay. The experiment is classed as functional.

Here are results for 6 compounds from ChEMBL document CHEMBL1150438, “Benzimidazole ribonucleosides: Observation of an unexpected nitration when performing non-aqueous diazotizations with t-butyl nitrite” (Bioorg Med Chem Lett, 1992).

Some results are limits rather than exact numbers.

For `Nc1c(Cl)c(Cl)cc2c1nc(O)n2C1O[C@H](CO)[C@@H](O)[C@H]1O` (some centres not stated), the 50% inhibitory concentration (IC50) in the experiment on Human betaherpesvirus 5 [1], in the experiment with Human alphaherpesvirus 1 and with HFF was more than 100 µM throughout.

Take `OC[C@H]1OC(n2c(I)nc3cc(Cl)c(Cl)cc32)[C@H](O)[C@@H]1O` (some centres not stated): the 90% effect concentration (IC90) with Human betaherpesvirus 5 [2] stood at 26 µM. In the experiment with HFF, this compound had an IC50 of 127 µM.

Consider `OC[C@H]1OC(n2c(O)nc3cc(Cl)c(Cl)cc32)[C@H](O)[C@@H]1O` (some centres not stated), for which the IC50 in the experiment with Human betaherpesvirus 5 [1] and with Human alphaherpesvirus 1 was more than 100 µM each time.

Consider `O=[N+]([O-])c1c(Cl)c(Cl)cc2c1nc(O)n2C1O[C@H](CO)[C@@H](O)[C@H]1O` (some centres not stated), for which the IC50 in the experiment with Human betaherpesvirus 5 [1] and in the experiment with Human alphaherpesvirus 1 was more than 100 µM throughout.

In the experiment on Human betaherpesvirus 5 [2], `OC[C@H]1O[C@@H](n2cnc3cc(Cl)c(Cl)cc32)[C@H](O)[C@@H]1O` [DICHLORORIBOBENZIMIDAZOLE] registered an IC90 of 19 µM.

Compound `Nc1nc2c(ncn2COC(CO)CO)c(=O)[nH]1` [GANCICLOVIR] showed a 90% effect concentration (IC90) in the experiment on Human betaherpesvirus 5 [2] of 2 µM. Also, in the experiment with HFF, the half-inhibitory concentration (IC50) is more than 100 µM.

One may read the IC50 as the point on the concentration scale where inhibition reaches its midpoint. A high value points to weaker potency. What is called IC90 is the point of the concentration-response curve where the effect stands at 90%.
